Converted amounts (≈) assume the structure as drawn. Read-outs that look alike come from different tables or passages of the source.

Holding throughout (type): cell-based
One assay concerns Mucor hiemalis DSM 2656. Kind of assay: Serial dilution assay, MIC. As for the experimental part:
(§1) Figure S3. ECD spectra of 7 .
(§2) Eval uation of anti mi cr obi al acti vity.
(§3) To assess the antimicrobial activity of each compound, a serial dilution assay to ascertain their minimum inhibitory concentration (MIC) against sever al yeast, fungal and bacterial strains was c arried out in 96-well micr otiter plates, as previously described by Har ms et al.
(§4) Table S1. Minimum inhibitory concentration (MIC in µg/mL) for yeast, bacterial and fungal strains.
(§5) The serial dilution assay was performed using 1 mg/mL stock solutions of 1 -8, 13, 15 and 16. As positive control the antimicrobials [ O] Oxytetracyclin , [ G] Gentamycin and [ K] Kanamycin wer e used for bacteria and [N] Nystatin was used for filamentous fungi and yeast.
(§6) (DSM 70572), Pichia anomala (DSM 6766), Candida albicans (DSM 1665), Escherichia coli (DSM 1116), Mycobacterium smegmatis (ATCC 700084), Pseudomonas aeruginosa (DSM PA14), Chromobacterium violaceum (DSM 30191) and Acinetobacter baumannii (DSM 30008).
(§7) (1 picture or pasted object on this page, not shown here)

Assay [1] has as its system Rhodotorula glutinis DSM 10134. The assay can be described thus: Serial dilution assay, MIC. The conditions noted are these: for MIC: DSM10134, - = no inhibition was observed, read-out: Minimum inhibitory concentration (MIC). On the procedure:
as §1, §2, §3, §4, §5, §6, §7

A further assay deals with Bacillus subtilis DSM 10. Kind of assay: Serial dilution assay, MIC. To be noted: for MIC: DSM10, - = no inhibition was observed, read-out: Minimum inhibitory concentration (MIC). On the procedure:
as §1, §2, §3, §4, §5, §6, §7

The subject of assay [2] is Staphylococcus aureus DSM 346. Kind of assay: Serial dilution assay, MIC. The conditions noted are these: for MIC: Staphylococcus aureus, DSM346, read-out: Minimum inhibitory concentration (MIC). On the procedure: as §1, §2, §3, §4, §5, §6, §7
Assay [3] concerns cervix carcinoma cell line KB3.1. Kind of assay: In vitro cytotoxicity assay. The conditions noted are these: Homo sapiens, KB 3-1, - = no activity, read-out: Half inhibitory concentration (IC50). As for the experimental part: (§8) Eval uation of cytot ox icity.
(§9) Assessment of in vitro cytotoxicity was performed in 96-well plates, as previously published by Harms et al against the
(§10) mouse fibroblast cell line L929 and the cervix car cinoma cell line KB3.1. […]
(§11) Table S2. Half inhibitory concentration (IC50 i n µM ) .
(§12) The cytotoxicity assay was performed using 1 mg/mL stock solutions of 1 -8 , 13 , 15 and 16. Epo thilon B was tested as positive

For assay [4], the system named is mouse fibroblast cell line L929. The assay can be described thus: In vitro cytotoxicity assay. To be noted: - = no activity, read-out: Half inhibitory concentration (IC50). As for the experimental part: as §8, §9, §10, §11, §12
The subject of assay [5] is human lung carcinoma cell line A549. Kind of assay: Extended cytotoxicity assay. To be noted: read-out: Half inhibitory concentration (IC50). On the procedure:
as §8
(§13) Assessment of in vitro cytotoxicity was performed in 96-well plates, as previously published by Harms et al against the mouse fibroblast cell line L929 and the cervix car cinoma cell line KB3.1. Heimiomycin D (5 ) was additionally tested against human breast carcinoma cell line MCF-7, human lung carcinoma cell line A549, human ovarian carcinoma cell line SKOV -3, human prostate carcinoma cell line P C-3 and human epidermoid carcinoma cell line A431.
as §11
(§14) The cytotoxicity assay was performed using 1 mg/mL stock solutions of 1 -8 , 13 , 15 and 16. Epo thilon B was tested as positive […]
(§15) IC50 in µM; - no activity
(§16) Table S3. Half inhibitory concentration (IC50 in µM) of 5 .
(§17) The extended cytotoxicity assay against further cell lines was performed using a 1 mg/mL stock solution of 5 . Epothilon B was tested as positive control.
(§18) Hei mio my cin D (5) Epo B

The subject of assay [6] is human prostate carcinoma cell line PC-3. Kind of assay: Extended cytotoxicity assay. The conditions noted are these: read-out: Half inhibitory concentration (IC50). On the procedure: as §8, §13, §11, §14, §15, §16, §17, §18
The subject of assay [7] is human epidermoid carcinoma cell line A431. The assay can be described thus: Extended cytotoxicity assay. The conditions noted are these: read-out: Half inhibitory concentration (IC50). As for the experimental part: as §8, §13
(§19) Table S2. Half inhibitory concentration (IC50 i n µM ) . […]
as §16, §17, §18

For assay [8], the system named is human breast carcinoma cell line MCF-7. The assay can be described thus: Extended cytotoxicity assay. The conditions noted are these: MCF7, read-out: Half inhibitory concentration (IC50). As for the experimental part:
as §8, §13, §19, §16, §17, §18

In assay [9] the test system is human ovarian carcinoma cell line SKOV-3. Kind of assay: Extended cytotoxicity assay. The conditions noted are these: SK-OV-3, read-out: Half inhibitory concentration (IC50). As for the experimental part:
as §8, §13, §19, §16, §17, §18

Consider `C[C@@H]1[C@H](O)[C@@H](C)/C=C/C=C/CC/C=C/C=C/C=C/C=C/C(O[C@H]2O[C@H](C)[C@@H](O)[C@H](N)[C@@H]2O)CC2O[C@](O)(CC(O)C(O)CCC(O)CC(O)CC(O)CC(=O)O[C@H]1C)CC(O)C2C(=O)O` (stereo partly drawn) [Nystatin, reference compound], for which the “Minimum inhibitory concentration (MIC)” value in the assay on Mucor hiemalis DSM 2656 (- = no inhibition was observed) was 8.3 µg/mL (≈ 8.96 µM); in assay [1] (- = no inhibition was observed) it was 4.2 µg/mL (≈ 4.54 µM).

Regarding `CN(C)[C@@H]1C(=O)C(C(N)=O)=C(O)[C@@]2(O)C(=O)C3=C(O)c4c(O)cccc4[C@@](C)(O)[C@H]3[C@H](O)[C@@H]12` [Oxytetracyclin, reference compound], the “Minimum inhibitory concentration (MIC)” value came to 8.3 µg/mL (≈ 18 µM) in the assay on Bacillus subtilis DSM 10 (- = no inhibition was observed) and 0.83 µg/mL (≈ 1.8 µM) in assay [2] (Staphylococcus aureus DSM 346, - = no inhibition was observed).

For `CC(C)[C@H]1CC[C@H](C)c2c(O)c(O)c(C=O)c(C3=C(O)C(=O)C(c4c(C=O)c(O)c(O)c5c4[C@@H](C(C)C)CC[C@@H]5C)=C(O)C3=O)c21` [compound 1, Bis-heimiomycin A], the MIC in the assay with Bacillus subtilis DSM 10 was found to be 33.3 µg/mL (≈ 52.6 µM); in assay [1], 66.6 µg/mL (≈ 105 µM).

`CC(C)[C@H]1CC[C@H](C)c2c(O)c(O)c(C=O)c(C3=C(O)C(=O)C4=C(OCc5c(O)c(O)c6c(c54)[C@@H](C(C)C)CC[C@@H]6C)C3=O)c21` [compound 2, Bis-heimiomycin B]: the IC50 in assay [3] is 30.8 µM. The MIC with Bacillus subtilis DSM 10 was 16.6 µg/mL (≈ 26.9 µM); in [2], 33.3 µg/mL (≈ 54 µM).

Consider `CC(C)[C@H]1CC[C@H](C)c2c(O)c(O)c(CO)c(C3=C(O)C(=O)C4=C(OCc5c(O)c(O)c6c(c54)[C@@H](C(C)C)CC[C@@H]6C)C3=O)c21` [compound 3, Bis-heimiomycin C], for which the figures for the IC50 in assay [4] and in assay [3] were 32.4 µM and 27.5 µM, respectively. Besides, the MIC in the assay with Bacillus subtilis DSM 10 came out at 16.6 µg/mL (≈ 26.8 µM); in assay [2], 33.3 µg/mL (≈ 53.8 µM).

With `CC(C)[C@H]1CC[C@H](C)c2c(O)c(O)c3c(c21)C1=C(OC3)C(=O)C2=C(OCc3c(O)c(O)c4c(c32)[C@@H](C(C)C)CC[C@@H]4C)C1=O` [compound 4, Bis-heimiomycin D], the IC50 in assay [3] came to 35 µM.

With `CC1=C(O)C(=O)C(c2c(C=O)c(O)c(O)c3c2[C@@H](C(C)C)CC[C@@H]3C)=C(O)C1=O` [compound 5, Heimiomycin D], the IC50 in [5] was 14.3 µM; in assay [6] it was 30 µM; in assay [4], 45 µM; in assay [3], 6.3 µM; in [7] (A431), 4.3 µM; in [7] (Homo sapiens, A-431, A431) it was 4.25 µM. Further, the IC50 in assay [8] was found to be 2.5 µM; in assay [9] it was 3 µM. Also, the MIC (with Bacillus subtilis DSM 10; in assay [2]) was 33.3 µg/mL (≈ 83.2 µM) each time.

With `CC(C)[C@H]1CC[C@H](C)c2c(O)c(O)c(C=O)c(C3=C(O)C(=O)C=C(O)C3=O)c21` [compound 6, Heimiomycin E], the IC50 in [4] was 57 µM. Besides, the MIC worked out at 16.6 µg/mL (≈ 43 µM) in the assay on Bacillus subtilis DSM 10 and 66.6 µg/mL (≈ 172 µM) in [2].

For `CC(C)[C@H]1CC[C@H](C)C2=C1C=C(C(=O)O)CC2` [compound 7, Heimiocalamene A], the IC50 in assay [3] stood at 85.5 µM. The MIC in the assay on Bacillus subtilis DSM 10 worked out at 66.6 µg/mL (≈ 284 µM); in the assay with Mucor hiemalis DSM 2656 (DSM2656, - = no inhibition was observed, read-out: Minimum inhibitory concentration (MIC)) it was 33.3 µg/mL (≈ 142 µM); in assay [2], 66.6 µg/mL (≈ 284 µM); in [1], 66.6 µg/mL (≈ 284 µM).

Regarding `Cc1c(O)c(O)c(C(C)C)c2c1CCC(C(=O)O)=C2` [compound 8, Heimiocalamene B], the IC50 turned out to be 37.4 µM in [4] and 31.3 µM in assay [3]. Also, the MIC (in the assay with Bacillus subtilis DSM 10; in [1]) was 66.6 µg/mL (≈ 254 µM) each time.

`O=c1cc(O)cc(/C=C/c2ccc(O)c(O)c2)o1` [compound 15, hispidin]: the results for the IC50 in assay [4] and in assay [3] were 85.4 µM and 93.5 µM, respectively.

`O=c1cc(O)cc(C2c3c(cc(/C=C/c4ccc(O)c(O)c4)oc3=O)OC2c2ccc(O)c(O)c2)o1` (stereo not drawn) [compound 16, hypholomin B]: in the assay with Bacillus subtilis DSM 10, the MIC worked out at 33.3 µg/mL (≈ 67.9 µM).

(Values after PMC9972471, “Calamene-Type Sesqui-, Mero-, and Bis-sesquiterpenoids from Cultures of Heimiomyces sp., a Basidiomycete Collected in Africa” (Journal of Natural Products, 2023).)
